Starred links: 1 amine or outer side, 2 acyl side, 3 side chain; linkers in the order of their positions; H or OH if unused. Positions of bridges follow the written chain, without caps; N, C: chain ends. Residues, ends and D or L forms follow the SMILES beside them. *: point of attachment. C18 diacid = O=C(O)CCCCCCCCCCCCCCCCC(=O)*; γGlu = O=C(O)[C@H](CCC(=O)[*:2])N[*:1]; AEEA = NCCOCCOCC(=O)O
Molecular target: T1, human natriuretic peptide receptor 2 (hNPR2) (Homo sapiens, UniProt P20594)
T1 construct: expressed in transfected cells; host or cells: HEK293 (ATCC CRL-1573), clone 35, co-transfected with pGloSensor-42F
T1 sequence (P20594 23-1047): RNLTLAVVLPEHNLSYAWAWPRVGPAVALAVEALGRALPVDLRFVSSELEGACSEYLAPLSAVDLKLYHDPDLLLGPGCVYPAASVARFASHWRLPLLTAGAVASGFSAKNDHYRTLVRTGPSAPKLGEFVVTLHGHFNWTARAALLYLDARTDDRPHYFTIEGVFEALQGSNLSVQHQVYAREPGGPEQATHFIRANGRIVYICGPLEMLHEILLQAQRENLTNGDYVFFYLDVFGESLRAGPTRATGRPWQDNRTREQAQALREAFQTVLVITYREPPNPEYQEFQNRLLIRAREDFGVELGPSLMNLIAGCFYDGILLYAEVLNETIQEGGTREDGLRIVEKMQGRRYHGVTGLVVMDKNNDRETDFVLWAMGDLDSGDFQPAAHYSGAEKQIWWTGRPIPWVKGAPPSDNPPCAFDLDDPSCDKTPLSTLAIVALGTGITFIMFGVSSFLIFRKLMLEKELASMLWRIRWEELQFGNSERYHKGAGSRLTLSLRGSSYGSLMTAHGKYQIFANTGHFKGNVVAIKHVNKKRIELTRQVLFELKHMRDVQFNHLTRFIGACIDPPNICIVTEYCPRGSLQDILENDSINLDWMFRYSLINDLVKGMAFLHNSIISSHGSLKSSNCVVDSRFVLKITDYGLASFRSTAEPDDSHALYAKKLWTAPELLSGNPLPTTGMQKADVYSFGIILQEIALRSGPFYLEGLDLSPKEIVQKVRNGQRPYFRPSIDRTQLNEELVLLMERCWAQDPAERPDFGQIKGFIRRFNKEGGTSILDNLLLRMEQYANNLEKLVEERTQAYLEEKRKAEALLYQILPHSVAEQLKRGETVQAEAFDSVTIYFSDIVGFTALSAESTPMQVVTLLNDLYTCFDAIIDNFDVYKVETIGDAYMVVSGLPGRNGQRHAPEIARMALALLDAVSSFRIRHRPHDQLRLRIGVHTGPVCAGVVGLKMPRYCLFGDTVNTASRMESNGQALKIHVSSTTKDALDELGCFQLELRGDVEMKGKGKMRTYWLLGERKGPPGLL
Test: In vitro hNPR2 activity assay (cGMP GloSensor reporter, HEK293)
Format: cell-based
Details: for EC50: 0% HSA, HEK293-hNPR2/GloSensor cells; for hNPR2 0% HSA. [EC50% rel CNP]: potency relative to CNP22 (0065)
Outline: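 Potency is the EC50 from a four-parameter logistic fit, also expressed relative to the in-plate CNP22 control (×100), with at least two replicates. Compounds (ten concentrations, […], HSA-free diluent with 1% OVA, 0.01% Tween20) were incubated 30 min at 37 °C on HEK293 cells co-expressing hNPR2 and a GloSensor cGMP luciferase. Luminescence detected with Bright-Glo.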

Structure (SMILES) | EC50 | hNPR2 0% HSA. [EC50% rel CNP]
CC[C@H](C)[C@@H]1NC(=O)[C@H](CCCNC(=N)N)NC(=O)[C@H](CC(=O)O)NC(=O)[C@H](CC(C)C)NC(=O)[C@H](CCCCN)NC(=O)[C@H](CC(C)C)NC(=O)CNC(=O)[C@H](Cc2ccccc2)NC(=O)[C@@H](NC(=O)CNC(=O)[C@H](CCC(N)=O)NC(=O)[C@H](CO)NC(=O)[C@H](CC(C)C)NC(=O)CNC(=O)[C@H](CCCCN)NC(=O)[C@H](CCCCN)NC(=O)[C@H](CCC(N)=O)NC(=O)[C@H](C)NC(=O)CNC(=O)[C@H](CCCCN)NC(=O)[C@H](Cc2ccc(O)cc2)NC(=O)[C@H](CCCCN)NC(=O)[C@H](CCCNC(=N)N)NC(=O)[C@H](C)NC(=O)COCCOCCNC(=O)COCCOCCNC(=O)COCCOCCNC(=O)COCCOCCNC(=O)CC[C@H](NC(=O)CC[C@H](NC(=O)CC[C@H](NC(=O)CC[C@H](NC(=O)CC[C@H](NC(=O)CCCCCCCCCCCCCCCCC(=O)O)C(=O)O)C(=O)O)C(=O)O)C(=O)O)C(=O)O)CSSC[C@@H](C(=O)O)NC(=O)CNC(=O)[C@H](CC(C)C)NC(=O)CNC(=O)[C@H](CO)NC(=O)[C@H](CC(C)C)NC(=O)[C@H](CO)NC(=O)CNC1=O [compound 1463] ({C18 diacid-γGlu-γGlu-γGlu-γGlu-γGlu-AEEA-AEEA-AEEA-AEEA}-ARKYKGAQKKGLSQGCFGLKLDRIGSLSGLGC-OH; disulfide 16-32) | 0.3 nM | 20.0%
CC[C@H](C)[C@@H]1NC(=O)[C@H](CCCNC(=N)N)NC(=O)[C@H](CCC(=O)O)NC(=O)[C@H](CC(C)C)NC(=O)[C@H](CCCCN)NC(=O)[C@H](CC(C)C)NC(=O)CNC(=O)[C@H](Cc2ccccc2)NC(=O)[C@@H](NC(=O)CNC(=O)[C@H](CCCCN)NC(=O)[C@H](CO)NC(=O)[C@H](CC(C)C)NC(=O)CNC(=O)[C@H](Cc2c[nH]cn2)NC(=O)[C@H](Cc2c[nH]cn2)NC(=O)[C@H](CCC(N)=O)NC(=O)[C@H](C)NC(=O)CNC(=O)[C@H](Cc2c[nH]cn2)NC(=O)[C@H](Cc2ccc(O)cc2)NC(=O)COCCOCCNC(=O)COCCOCCNC(=O)CC[C@H](NC(=O)CCCCCCCCCCCCCCCCC(=O)O)C(=O)O)CSSC[C@@H](C(=O)O)NC(=O)CNC(=O)[C@H](CC(C)C)NC(=O)CNC(=O)[C@H](CO)NC(=O)[C@H](CC(C)C)NC(=O)[C@H](CO)NC(=O)CNC1=O [compound 1322] ({C18 diacid-γGlu-AEEA-AEEA}-YHGAQHHGLSKGCFGLKLERIGSLSGLGC-OH; disulfide 13-29; C-terminus assumed) | 4.73 nM | 1.9%
CC[C@H](C)[C@@H]1NC(=O)[C@H](CCCNC(=N)N)NC(=O)[C@H](CC(=O)O)NC(=O)[C@H](CC(C)C)NC(=O)[C@@H]2CCCN2C(=O)[C@H](CC(C)C)NC(=O)CNC(=O)[C@H](Cc2ccccc2)NC(=O)[C@@H](NC(=O)CNC(=O)[C@H](CCC(N)=O)NC(=O)[C@H](CO)NC(=O)[C@H](CC(C)C)NC(=O)CNC(=O)[C@H](CCCCN)NC(=O)[C@H](CCCCN)NC(=O)[C@H](CCC(N)=O)NC(=O)[C@H](C)NC(=O)CNC(=O)[C@H](Cc2c[nH]cn2)NC(=O)[C@H](Cc2ccc(O)cc2)NC(=O)COCCOCCNC(=O)COCCOCCNC(=O)COCCOCCNC(=O)COCCOCCNC(=O)CC[C@H](NC(=O)CC[C@H](NC(=O)CCCCCCCCCCCCCCCCC(=O)O)C(=O)O)C(=O)O)CSSC[C@@H](C(=O)O)NC(=O)CNC(=O)[C@H](CC(C)C)NC(=O)CNC(=O)[C@H](CO)NC(=O)[C@H](CC(C)C)NC(=O)[C@H](CO)NC(=O)CNC1=O [compound 1461] ({C18 diacid-γGlu-γGlu-AEEA-AEEA-AEEA-AEEA}-YHGAQKKGLSQGCFGLPLDRIGSLSGLGC-OH; disulfide 13-29) | – | 28.9%
CC[C@H](C)[C@@H]1NC(=O)[C@H](CCCNC(=N)N)NC(=O)[C@H](CC(=O)O)NC(=O)[C@H](CC(C)C)NC(=O)[C@@H]2CCCN2C(=O)[C@H](CC(C)C)NC(=O)CNC(=O)[C@H](Cc2ccccc2)NC(=O)[C@@H](NC(=O)CNC(=O)[C@H](CCC(N)=O)NC(=O)[C@H](CO)NC(=O)[C@H](CC(C)C)NC(=O)CNC(=O)[C@H](CCCCN)NC(=O)[C@H](CCCCN)NC(=O)[C@H](CCC(N)=O)NC(=O)[C@H](C)NC(=O)CNC(=O)[C@H](CCC(=O)O)NC(=O)[C@H](Cc2ccc(O)cc2)NC(=O)COCCOCCNC(=O)COCCOCCNC(=O)COCCOCCNC(=O)COCCOCCNC(=O)CC[C@H](NC(=O)CCCCCCCCCCCCCCCCC(=O)O)C(=O)O)CSSC[C@@H](C(=O)O)NC(=O)CNC(=O)[C@H](CC(C)C)NC(=O)CNC(=O)[C@H](CO)NC(=O)[C@H](CC(C)C)NC(=O)[C@H](CO)NC(=O)CNC1=O [compound 1393] ({C18 diacid-γGlu-AEEA-AEEA-AEEA-AEEA}-YEGAQKKGLSQGCFGLPLDRIGSLSGLGC-OH; disulfide 13-29) | – | 27.8%
CC[C@H](C)[C@@H]1NC(=O)[C@H](CCCNC(=N)N)NC(=O)[C@H](CC(=O)O)NC(=O)[C@H](CC(C)C)NC(=O)[C@H](CCCCN)NC(=O)[C@H](CC(C)C)NC(=O)CNC(=O)[C@H](Cc2ccccc2)NC(=O)[C@@H](NC(=O)CNC(=O)[C@H](CCCCN)NC(=O)[C@H](CO)NC(=O)[C@H](CC(C)C)NC(=O)CNC(=O)[C@H](CCCCN)NC(=O)[C@H](CCC(=O)O)NC(=O)[C@H](CCC(N)=O)NC(=O)[C@H](C)NC(=O)CNC(=O)[C@H](CCCCN)NC(=O)[C@H](CCC(=O)O)NC(=O)COCCOCCNC(=O)COCCOCCNC(=O)CC[C@H](NC(=O)CCCCCCCCCCCCCCCCC(=O)O)C(=O)O)CSSC[C@@H](C(=O)O)NC(=O)CNC(=O)[C@H](CC(C)C)NC(=O)CNC(=O)[C@H](CO)NC(=O)[C@H](CC(C)C)NC(=O)[C@H](CO)NC(=O)CNC1=O [compound 1229] ({C18 diacid-γGlu-AEEA-AEEA}-EKGAQEKGLSKGCFGLKLDRIGSLSGLGC-OH; disulfide 13-29) | 4.44 nM | 5.3%
CC[C@H](C)[C@@H]1NC(=O)[C@H](CCCNC(=N)N)NC(=O)[C@H](CC(=O)O)NC(=O)[C@H](CC(C)C)NC(=O)[C@@H]2CCCN2C(=O)[C@H](CC(C)C)NC(=O)CNC(=O)[C@H](Cc2ccccc2)NC(=O)[C@@H](NC(=O)CNC(=O)[C@H](CO)NC(=O)[C@H](CO)NC(=O)[C@@H](NC(=O)CNC(=O)[C@@H](NC(=O)[C@H](CCCCN)NC(=O)[C@H](CCC(N)=O)NC(=O)[C@H](C)NC(=O)CNC(=O)[C@H](Cc2c[nH]cn2)NC(=O)[C@H](CCC(=O)O)NC(=O)[C@H](CCCCN)NC(=O)[C@H](CCCNC(=N)N)NC(=O)[C@H](C)NC(=O)COCCOCCNC(=O)COCCOCCNC(=O)CC[C@H](NC(=O)CCCCCCCCCCCCCCCCC(=O)O)C(=O)O)[C@@H](C)O)C(C)C)CSSC[C@@H](C(=O)O)NC(=O)CNC(=O)[C@H](CC(C)C)NC(=O)CNC(=O)[C@H](CO)NC(=O)[C@H](CC(C)C)NC(=O)[C@H](CO)NC(=O)CNC1=O [compound 1359] ({C18 diacid-γGlu-AEEA-AEEA}-ARKEHGAQKTGVSSGCFGLPLDRIGSLSGLGC-OH; disulfide 16-32; C-terminus assumed) | – | 28.2%

— US20240209028A1, “CNP COMPOUNDS” (priority 2022, published 2024)
